Results: PubChem BioAssay AID256 (DTP/NCI, 2004)
Several values for one entry are separate records, joined by “and”; a condition that tells them apart may be missing. Equal entries are not always repeated. Toxic doses and inconclusive results are not listed.

Tested on: CD2F1 mice, L1210 leukemia ip, survival T/C
Assay: NCI In Vivo Anticancer Drug Screen. Data for tumor model L1210 Leukemia (intraperitoneal) in CD2F1 (CDF1) mice
Conditions: higher = longer survival
How it was run: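 Activity against a transplanted murine tumor was judged by comparing the compound group with a vehicle group. The outcome in the treated animals was divided by that in the controls.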

[1] = endpoint: mean survival time, dose: 25.0 mg/kg/injection, schedule: Q01DX009 (ip), vehicle: saline with Tween-80
[2] = endpoint: mean survival time, dose: 50.0 mg/kg/injection, schedule: Q04DX003 (ip), vehicle: saline with Tween-80
[3] = endpoint: mean survival time, dose: 100.0 mg/kg/injection, schedule: Q04DX003 (ip), vehicle: saline with Tween-80
[4] = endpoint: mean survival time, dose: 200.0 mg/kg/injection, schedule: Q04DX003 (ip), vehicle: saline with Tween-80
[5] = endpoint: mean survival time, dose: 400.0 mg/kg/injection, schedule: Q04DX003 (ip), vehicle: saline with Tween-80
[6] = endpoint: mean survival time, dose: 100.0 mg/kg/injection, schedule: Q01DX009 (ip), vehicle: saline with Tween-80
[7] = endpoint: mean survival time, dose: 200.0 mg/kg/injection, schedule: Q01DX009 (ip), vehicle: saline with Tween-80
[8] = endpoint: mean survival time, dose: 400.0 mg/kg/injection, schedule: Q01DX009 (ip), vehicle: saline with Tween-80
[9] = endpoint: mean survival time, dose: 100.0 mg/kg/injection, schedule: Q01DX009 (ip), vehicle: saline
[10] = endpoint: mean survival time, dose: 400.0 mg/kg/injection, schedule: Q01DX009 (ip), vehicle: saline
[11] = endpoint: mean survival time, dose: 50.0 mg/kg/injection, schedule: Q01DX009 (ip), vehicle: saline with Tween-80

O=C(O)C[N-]c1ccccc1.O=C(O)C[N-]c1ccccc1.[Ni+2]
T/C [1]: 95 % of control | T/C [2]: 107 % of control | T/C [3]: 106 % of control

COc1cc2c(c(OC)c1OC)-c1ccc(OC)c(=O)cc1[C@@H](N(C)C(C)=O)CC2
T/C (endpoint: mean survival time, dose: 0.06 mg/kg/injection, schedule: Q01DX005 (ip), vehicle: Klucel (hydroxypropylcellulose) (HPC)): 103 % of control | T/C (endpoint: mean survival time, dose: 0.13 mg/kg/injection, schedule: Q01DX005 (ip), vehicle: Klucel (hydroxypropylcellulose) (HPC)): 104 % of control | T/C (endpoint: mean survival time, dose: 0.25 mg/kg/injection, schedule: Q01DX005 (ip), vehicle: Klucel (hydroxypropylcellulose) (HPC)): 110 % of control | T/C (endpoint: mean survival time, dose: 1.0 mg/kg/injection, schedule: Q01DX005 (ip), vehicle: Klucel (hydroxypropylcellulose) (HPC)): 150 % of control

O=C1Nc2ccc([N+](=O)[O-])c3c([N+](=O)[O-])ccc1c23
T/C [3]: 98 % of control | T/C [4]: 97 % of control | T/C [5]: 102 % of control

CSCC(NC(=O)OCc1ccccc1)C(=O)O (stereo unspecified)
T/C [3]: 101 % of control | T/C [4]: 101 % of control

CCC1(CC)CO1
T/C [6]: 104 % of control | T/C (endpoint: mean survival time, dose: 100.0 mg/kg/injection, schedule: Q04DX003 (ip), vehicle: saline): 96 % of control | T/C [7]: 93 % of control | T/C (endpoint: mean survival time, dose: 200.0 mg/kg/injection, schedule: Q04DX003 (ip), vehicle: saline): 94 % of control | T/C [8]: 97 % of control | T/C (endpoint: mean survival time, dose: 400.0 mg/kg/injection, schedule: Q04DX003 (ip), vehicle: saline): 98 % of control

CC1OC(n2cc(C(N)=O)c3c(N)ncnc32)C(O)C1O (stereo unspecified)
T/C (endpoint: mean survival time, dose: 12.5 mg/kg/injection, schedule: Q01DX009 (ip), vehicle: saline): 103 % of control | T/C (endpoint: mean survival time, dose: 25.0 mg/kg/injection, schedule: Q01DX009 (ip), vehicle: saline): 103 % of control | T/C (endpoint: mean survival time, dose: 50.0 mg/kg/injection, schedule: Q01DX009 (ip), vehicle: saline): 103 % of control | T/C [9]: 105 % of control

CNCC(=O)NC(CO)C(=O)NC(CO)C(=O)NC1C(C(N)=O)OC(n2ccc(N)nc2=O)C(O)C1O (stereo unspecified)
T/C (endpoint: mean survival time, dose: 0.19 mg/kg/injection, schedule: Q01DX005 (ip), vehicle: water): 98 % of control | T/C (endpoint: mean survival time, dose: 0.38 mg/kg/injection, schedule: Q01DX005 (ip), vehicle: water): 104 % of control | T/C (endpoint: mean survival time, dose: 0.75 mg/kg/injection, schedule: Q01DX005 (ip), vehicle: water): 98 % of control

OCC1OC(n2cnc3c(SSc4ncnc5c4ncn5C4OC(CO)C(O)C4O)ncnc32)C(O)C1O (stereo unspecified)
T/C (endpoint: mean survival time, dose: 178.0 mg/kg/injection, schedule: Q01DX009 (ip), vehicle: saline): 115 % of control | T/C [10]: 150 % of control

Cc1nc2c(c(=O)[nH]1)C(c1ccccc1)C(C)(C)O2 (stereo unspecified)
T/C [6]: 96 % of control | T/C [3]: 93 % of control | T/C [7]: 93 % of control | T/C [4]: 96 % of control | T/C [8]: 93 % of control | T/C [5]: 93 % of control

COc1ccc(C(CC(=O)c2ccccc2)CC(=O)c2ccccc2)cc1
T/C [1]: 94 % of control | T/C (endpoint: mean survival time, dose: 25.0 mg/kg/injection, schedule: Q04DX003 (ip), vehicle: saline with Tween-80): 101 % of control | T/C [11]: 96 % of control | T/C [2]: 93 % of control | T/C [3]: 87 % of control

NNC(=O)c1nnc(NN)[nH]c1=O
T/C (endpoint: mean survival time, dose: 100.0 mg/kg/injection, schedule: Q01DX001 (ip), vehicle: carboxymethylcellulose (CMC)): 102 % of control | T/C (endpoint: mean survival time, dose: 200.0 mg/kg/injection, schedule: Q01DX001 (ip), vehicle: carboxymethylcellulose (CMC)): 100 % of control | T/C (endpoint: mean survival time, dose: 400.0 mg/kg/injection, schedule: Q01DX001 (ip), vehicle: carboxymethylcellulose (CMC)): 93 % of control

CCOC(=O)c1ccc(OC(=O)Nc2cc(OC)ccc2OC)cc1
T/C [6]: 93 % of control | T/C [7]: 92 % of control

CCOc1ccc2ccccc2c1C
T/C (endpoint: mean survival time, dose: 100.0 mg/kg/injection, schedule: Q04DX002 (ip), vehicle: other): 120 % of control | T/C (endpoint: mean survival time, dose: 200.0 mg/kg/injection, schedule: Q04DX002 (ip), vehicle: other): 112 % of control | T/C (endpoint: mean survival time, dose: 400.0 mg/kg/injection, schedule: Q04DX002 (ip), vehicle: other): 104 % of control

Cc1cccc(C)c1NC(=O)c1cccc(Cl)c1
T/C [6]: 94 % of control | T/C [3]: 98 % of control | T/C [7]: 98 % of control | T/C [4]: 96 % of control | T/C [8]: 94 % of control | T/C [5]: 98 % of control

NS(N)(=O)=O
T/C [9]: 105 % of control | T/C (endpoint: mean survival time, dose: 200.0 mg/kg/injection, schedule: Q01DX009 (ip), vehicle: saline): 100 % of control | T/C [10]: 97 % of control

C=CCS(=O)(=O)Cc1cccc(C)c1
T/C (endpoint: mean survival time, dose: 100.0 mg/kg/injection, schedule: Q01DX001 (ip), vehicle: Klucel (hydroxypropylcellulose) (HPC)): 93 % of control | T/C (endpoint: mean survival time, dose: 200.0 mg/kg/injection, schedule: Q01DX001 (ip), vehicle: Klucel (hydroxypropylcellulose) (HPC)): 107 % of control | T/C (endpoint: mean survival time, dose: 400.0 mg/kg/injection, schedule: Q01DX001 (ip), vehicle: Klucel (hydroxypropylcellulose) (HPC)): 101 % of control

CCCCOC(=O)C(N)=O
T/C (endpoint: mean survival time, dose: 100.0 mg/kg/injection, schedule: Q01DX009 (ip), vehicle: Klucel (hydroxypropylcellulose) (HPC)): 94 % of control | T/C [3]: 97 % of control | T/C (endpoint: mean survival time, dose: 200.0 mg/kg/injection, schedule: Q01DX009 (ip), vehicle: Klucel (hydroxypropylcellulose) (HPC)): 100 % of control | T/C [4]: 100 % of control | T/C (endpoint: mean survival time, dose: 400.0 mg/kg/injection, schedule: Q01DX009 (ip), vehicle: Klucel (hydroxypropylcellulose) (HPC)): 93 % of control | T/C [5]: 102 % of control

c1coc(CNC2=NCCO2)c1
T/C (endpoint: mean survival time, dose: 100.0 mg/kg/injection, schedule: Q01DX001 (ip), vehicle: other): 95 % of control | T/C (endpoint: mean survival time, dose: 200.0 mg/kg/injection, schedule: Q01DX001 (ip), vehicle: other): 103 % of control | T/C (endpoint: mean survival time, dose: 400.0 mg/kg/injection, schedule: Q01DX001 (ip), vehicle: other): 90 % of control

CN(C)CC(N)C(=O)O (stereo unspecified)
T/C (endpoint: mean survival time, dose: 50.0 mg/kg/injection, schedule: Q04DX002 (ip), vehicle: saline): 89 % of control | T/C (endpoint: mean survival time, dose: 100.0 mg/kg/injection, schedule: Q04DX002 (ip), vehicle: saline): 92 % of control

COC12CC(COC(=O)c3cncc(Br)c3)CN(C)C1Cc1cn(C)c3cccc2c13 (stereo unspecified)
T/C (endpoint: mean survival time, dose: 100.0 mg/kg/injection, schedule: Q04DX003 (ip), vehicle: alcohol): 105 % of control | T/C (endpoint: mean survival time, dose: 200.0 mg/kg/injection, schedule: Q04DX003 (ip), vehicle: alcohol): 102 % of control | T/C (endpoint: mean survival time, dose: 400.0 mg/kg/injection, schedule: Q04DX003 (ip), vehicle: alcohol): 111 % of control

O=C(c1ccccc1)c1cccs1
T/C (endpoint: mean survival time, dose: 22.0 mg/kg/injection, schedule: Q01DX009 (ip), vehicle: saline with Tween-80): 96 % of control | T/C (endpoint: mean survival time, dose: 22.0 mg/kg/injection, schedule: Q04DX003 (ip), vehicle: saline with Tween-80): 95 % of control | T/C (endpoint: mean survival time, dose: 44.0 mg/kg/injection, schedule: Q01DX009 (ip), vehicle: saline with Tween-80): 96 % of control | T/C (endpoint: mean survival time, dose: 44.0 mg/kg/injection, schedule: Q04DX003 (ip), vehicle: saline with Tween-80): 101 % of control | T/C (endpoint: mean survival time, dose: 88.0 mg/kg/injection, schedule: Q01DX009 (ip), vehicle: saline with Tween-80): 93 % of control | T/C (endpoint: mean survival time, dose: 88.0 mg/kg/injection, schedule: Q04DX003 (ip), vehicle: saline with Tween-80): 104 % of control

Clc1nc[nH]c1Cl
T/C [1]: 97 % of control | T/C [11]: 95 % of control | T/C [6]: 97 % of control | T/C [3]: 95 % of control

C=C(C(=O)O)C(N)C(=O)O (stereo unspecified)
T/C (endpoint: median survival time, dose: 25.0 mg/kg/injection, schedule: Q01DX009 (ip), vehicle: suspension in saline): 96 % of control | T/C (endpoint: median survival time, dose: 50.0 mg/kg/injection, schedule: Q01DX009 (ip), vehicle: suspension in saline): 108 % of control | T/C (endpoint: median survival time, dose: 100.0 mg/kg/injection, schedule: Q01DX009 (ip), vehicle: suspension in saline): 103 % of control | T/C (endpoint: median survival time, dose: 200.0 mg/kg/injection, schedule: Q01DX009 (ip), vehicle: suspension in saline): 94 % of control | T/C (endpoint: median survival time, dose: 400.0 mg/kg/injection, schedule: Q01DX009 (ip), vehicle: suspension in saline): 91 % of control

O=C(/C=C\c1ccc(/C=C/C(=O)Nc2cccc(C3=NCCCN3)c2)cc1)Nc1cccc(C2=NCCCN2)c1
T/C (endpoint: median survival time, dose: 5.0 mg/kg/injection, schedule: Q01DX009 (ip), vehicle: Klucel (hydroxypropylcellulose) (HPC)): 175 % of control and 196 % of control | T/C (endpoint: median survival time, dose: 10.0 mg/kg/injection, schedule: Q01DX009 (ip), vehicle: Klucel (hydroxypropylcellulose) (HPC)): 185 % of control and 250 % of control | T/C (endpoint: median survival time, dose: 20.0 mg/kg/injection, schedule: Q01DX009 (ip), vehicle: Klucel (hydroxypropylcellulose) (HPC)): 113 % of control

CC(C)(C)c1cc(C(C)(C)C)c(C(=O)O)c(C(C)(C)C)c1Cl
T/C [3]: 101 % of control | T/C [4]: 97 % of control | T/C [5]: 100 % of control

CCCCOc1ccc(OCCCC)cc1
T/C (endpoint: mean survival time, dose: 100.0 mg/kg/injection, schedule: Q04DX003 (ip), vehicle: other): 114 % of control | T/C (endpoint: mean survival time, dose: 200.0 mg/kg/injection, schedule: Q04DX003 (ip), vehicle: other): 97 % of control | T/C (endpoint: mean survival time, dose: 400.0 mg/kg/injection, schedule: Q04DX003 (ip), vehicle: other): 101 % of control
